The results in this text go back to patent publication US20110136862A1, “NOVEL TETRAMETHYL SUBSTITUTED PIPERIDINE DERIVATIVES AND THEIR USE AS MONOAMINE NEUROTRANSMITTER RE-UPTAKE INHIBITORS” (NEUROSEARCH A/S, priority 2008, published 2011).

Common to all, as to assay type: biochemical
Assay [1] concerns the target T1, reuptake of serotonine (5-HT) in synaptosomes (Rattus norvegicus, UniProt P31652).
T1 construct: serotonine (5-HT) in synaptosomes; from tissue
The assay can be described thus: Inhibition of 5-HT reuptake in synaptosomes. To be noted: 3H-5-HT, read-out: 5-HT-uptake IC50. Here is the method:
(§1) Compounds were tested for their ability to inhibit the reuptake of the monoamine neurotransmitters dopamine (DA) noradrenaline (NA) and serotonine (5-HT) in synaptosomes as described in WO 97/16451 (NeuroSearch A/S).
(§2) The test values are given as IC50 (the concentration (μM) of the test substance which inhibits the specific binding of ^3H-DA, ^3H-NA, or ^3H-5-HT by 50%).

Assay [2] deals with T2, reuptake of noradrenaline (NA) in synaptosomes (Rattus norvegicus, UniProt Q63380).
T2 construct: in synaptosomes as described in WO 97/16451; from tissue
T2 sequence (Q63380 1-617): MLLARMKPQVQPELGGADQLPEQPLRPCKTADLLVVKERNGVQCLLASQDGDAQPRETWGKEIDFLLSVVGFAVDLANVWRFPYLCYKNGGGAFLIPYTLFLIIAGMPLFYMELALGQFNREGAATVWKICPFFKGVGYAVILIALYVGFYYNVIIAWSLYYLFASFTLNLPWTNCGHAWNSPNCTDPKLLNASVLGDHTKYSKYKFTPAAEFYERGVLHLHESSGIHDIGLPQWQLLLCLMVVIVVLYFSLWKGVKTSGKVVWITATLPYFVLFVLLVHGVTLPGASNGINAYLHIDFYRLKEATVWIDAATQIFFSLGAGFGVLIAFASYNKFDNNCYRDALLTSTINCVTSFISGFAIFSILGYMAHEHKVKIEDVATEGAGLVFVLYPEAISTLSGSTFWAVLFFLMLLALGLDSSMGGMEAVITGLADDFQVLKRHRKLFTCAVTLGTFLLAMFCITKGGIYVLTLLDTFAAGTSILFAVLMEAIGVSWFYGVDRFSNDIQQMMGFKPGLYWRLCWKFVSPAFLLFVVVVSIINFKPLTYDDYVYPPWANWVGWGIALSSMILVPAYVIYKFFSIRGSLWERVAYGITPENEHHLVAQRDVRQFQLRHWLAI
The experiment in a line: Inhibition of NA reuptake in synaptosomes. To be noted: 3H-NA, read-out: NA-uptake IC50. Here is the method: as §1, §2

For assay [3], the target named is T3, reuptake of dopamine (DA) in synaptosomes (Rattus norvegicus, UniProt P23977).
T3 construct: in synaptosomes as described in WO 97/16451; from tissue
T3 sequence (P23977 whole entry): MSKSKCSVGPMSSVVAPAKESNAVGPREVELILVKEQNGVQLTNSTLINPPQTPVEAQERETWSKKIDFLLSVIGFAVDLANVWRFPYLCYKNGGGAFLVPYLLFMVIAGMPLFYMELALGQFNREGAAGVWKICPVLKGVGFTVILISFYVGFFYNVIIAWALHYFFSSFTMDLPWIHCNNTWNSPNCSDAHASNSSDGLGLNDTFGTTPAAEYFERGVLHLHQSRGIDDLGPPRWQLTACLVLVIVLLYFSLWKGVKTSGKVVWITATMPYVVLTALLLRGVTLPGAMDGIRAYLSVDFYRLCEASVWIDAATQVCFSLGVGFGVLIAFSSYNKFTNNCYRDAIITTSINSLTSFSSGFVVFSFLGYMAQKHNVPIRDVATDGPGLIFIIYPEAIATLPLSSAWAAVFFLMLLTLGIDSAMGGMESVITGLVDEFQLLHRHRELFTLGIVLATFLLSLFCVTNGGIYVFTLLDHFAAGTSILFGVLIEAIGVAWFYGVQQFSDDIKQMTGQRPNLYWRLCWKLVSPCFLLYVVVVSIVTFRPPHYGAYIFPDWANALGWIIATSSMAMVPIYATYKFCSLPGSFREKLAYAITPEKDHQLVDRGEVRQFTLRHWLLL
The assay can be described thus: Inhibition of DA reuptake in synaptosomes. To be noted: 3H-DA, read-out: DA-uptake IC50. Here is the method: as §1, §2

As a reminder, the IC50 is the midpoint of a concentration-inhibition curve.

T1 sequence (P31652 whole entry): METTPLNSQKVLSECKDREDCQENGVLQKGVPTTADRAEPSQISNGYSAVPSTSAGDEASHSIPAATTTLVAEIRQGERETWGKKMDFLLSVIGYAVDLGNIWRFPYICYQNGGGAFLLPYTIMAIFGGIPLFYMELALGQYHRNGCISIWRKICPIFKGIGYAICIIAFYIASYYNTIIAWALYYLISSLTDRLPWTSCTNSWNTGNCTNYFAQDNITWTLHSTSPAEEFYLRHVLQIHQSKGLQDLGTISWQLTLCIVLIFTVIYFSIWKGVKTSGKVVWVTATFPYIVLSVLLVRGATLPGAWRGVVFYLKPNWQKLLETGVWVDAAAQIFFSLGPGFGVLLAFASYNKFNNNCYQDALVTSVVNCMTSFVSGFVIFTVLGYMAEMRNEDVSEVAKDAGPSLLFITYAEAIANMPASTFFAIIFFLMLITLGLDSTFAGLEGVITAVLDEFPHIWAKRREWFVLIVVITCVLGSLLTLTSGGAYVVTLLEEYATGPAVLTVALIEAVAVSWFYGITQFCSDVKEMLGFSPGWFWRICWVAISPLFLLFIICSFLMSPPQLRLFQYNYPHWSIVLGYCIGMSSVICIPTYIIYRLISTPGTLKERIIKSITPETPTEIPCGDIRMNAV

In the case of `CC1(C)CC(Oc2ccc3cc(O)ccc3n2)CC(C)(C)N1` [2-(2,2,6,6-Tetramethyl-piperidin-4-yloxy)-quinolin-6-ol], the IC50 in assay [1] stood at 0.013 µM; in assay [2] it was 0.13 µM; in assay [3], 0.078 µM.

On to `CC1(C)CC(Oc2ccc3ccccc3n2)CC(C)(C)N1` [2-(2,2,6,6-Tetramethyl-piperidin-4-yloxy)-quinoline], for which the results for the IC50 in assay [1], in assay [2] and in assay [3] were 0.00068 µM, 0.013 µM and 0.18 µM, respectively.
